Test results reported in publication PMC5608804, “Stepwise Evolution Improves Identification of Diverse Peptides Binding to a Protein Target” (Scientific Reports, 2017).

The substances below were run against T1, streptavidin (Streptomyces avidinii, UniProt P22629) (assay: Cy5-streptavidin binding on HotSpot discovery array, 5-mer L-peptide library). Conditions: 5-mer L-peptide library array, Cy5-streptavidin; from average of three arrays.
T1 construct: purchased GE Healthcare (Little Chalfont, UK)
T1 sequence (P22629 25-183): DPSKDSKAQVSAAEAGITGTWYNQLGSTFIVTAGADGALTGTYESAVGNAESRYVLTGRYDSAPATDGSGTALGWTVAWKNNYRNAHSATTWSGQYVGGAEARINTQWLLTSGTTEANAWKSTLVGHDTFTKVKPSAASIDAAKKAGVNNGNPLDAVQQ
Method in brief: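 Array of 2,476,099 5-mer peptides (19 amino acids, no cysteine) with Gly-Ser linkers, probed overnight at 4 °C with 0.5 µg/ml Cy5-streptavidin in Tris pH 7.4 buffer containing casein or BSA plus Tween-20. Cy5 fluorescence read at 635 nm; peptides selected by signal-to-background >4 across three arrays.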

First: TEHPQ
Second: PFHPQ
The “S/B (signal to background ratio)” value of the first is lower: 57.0 for the first, 193.0 for the second.

First: PHPQN
Second: FKHPQ
The “S/B (signal to background ratio)” value of the first is higher: 138.6 for the first, 123.2 for the second.

Going from DFHPM to VHPQQ, the “S/B (signal to background ratio)” value falls from 36.4 to 30.0.

Compared with YPHPQ, ASHPQ is lower in “S/B (signal to background ratio)” value: 190.5 for the first, 130.1 for the second.

Compared with SGHPM, QGHPM is higher in “S/B (signal to background ratio)” value: 54.4 for the first, 56.0 for the second.

First: WWHPM
Second: GQHPQ
The “S/B (signal to background ratio)” value of the first is lower: 52.3 for the first, 134.5 for the second.

First: YHHPQ
Second: EPHPM
The “S/B (signal to background ratio)” value of the first is higher: 183.0 for the first, 23.1 for the second.

Going from HPQAA to QFHPQ, the “S/B (signal to background ratio)” value rises from 43.7 to 180.1.

First: GAHPM
Second: AAHPM
The “S/B (signal to background ratio)” value of the first is lower: 34.1 for the first, 35.3 for the second.

Going from QSHPM to WPHPQ, the “S/B (signal to background ratio)” value rises from 42.7 to 191.6.

Going from SNHPQ to PHPQW, the “S/B (signal to background ratio)” value falls from 144.9 to 23.8.

First: WHPQT
Second: LHPMA
The “S/B (signal to background ratio)” value of the first is higher: 54.9 for the first, 41.0 for the second.

Compared with VHPQN, YHPQK is lower in “S/B (signal to background ratio)” value: 153.6 for the first, 19.8 for the second.

Going from HPQVR to AHPQG, the “S/B (signal to background ratio)” value rises from 28.4 to 120.5.

First: GRHPQ
Second: MHPQG
The “S/B (signal to background ratio)” value of the first is higher: 136.4 for the first, 122.9 for the second.

First: EHPQY
Second: PVHPM
The “S/B (signal to background ratio)” value of the first is lower: 22.3 for the first, 27.2 for the second.

First: QNHPQ
Second: WKHPQ
The “S/B (signal to background ratio)” value of the first is lower: 135.0 for the first, 175.0 for the second.

In the case of HHPQR, the “S/B (signal to background ratio)” value is reported as 35.2.

Same assay, conditions: 5-mer L-peptide library array, Cy5-streptavidin; from the average of three arrays

Going from VTHPQ to DNHPQ, the “S/B (signal to background ratio)” value falls from 113.4 to 74.6.

Compared with FRHPM, HPQGD is lower in “S/B (signal to background ratio)” value: 89.2 for the first, 62.3 for the second.

First: HEHPQ
Second: MHPQF
The “S/B (signal to background ratio)” value of the first is lower: 76.5 for the first, 107.7 for the second.

First: PHPQS
Second: AHPMA
The “S/B (signal to background ratio)” value of the first is higher: 95.0 for the first, 60.9 for the second.

Going from YLHPM to NEHPQ, the “S/B (signal to background ratio)” value falls from 70.7 to 58.6.

Going from LGHPM to GWHPM, the “S/B (signal to background ratio)” value rises from 76.1 to 97.0.

Going from HPQSG to HHPQG, the “S/B (signal to background ratio)” value rises from 90.1 to 108.6.

Same assay, conditions: 5-mer L-peptide library, from the average of three arrays

Compared with HPWRS, HPAFQ is higher in “S/B (signal to background ratio)” value: 4.0 for the first, 4.5 for the second.

First: FMFMI [L-amino acid 5-mer array peptide]
Second: FYNFM [L-amino acid 5-mer array peptide]
The “S/B (signal to background ratio)” value of the first is lower: 4.3 for the first, 4.7 for the second.

Compared with WHVPQ, “GLGYH [L-amino acid 5-mer array peptide]” is higher in “S/B (signal to background ratio)” value: 4.3 for the first, 4.6 for the second.

Same assay, conditions: average of three arrays, L-peptide 5-mer library

Compared with “TPSFH [L-amino acid 5-mer array peptide]”, “FMFMI [L-amino acid 5-mer array peptide]” is lower in “S/B (signal to background ratio)” value: 6.7 for the first, 4.3 for the second.

First: NWDEI [L-amino acid 5-mer array peptide]
Second: LAKYH [L-amino acid 5-mer array peptide]
The “S/B (signal to background ratio)” value of the first is lower: 7.3 for the first, 12.2 for the second.

Going from “FYNFM [L-amino acid 5-mer array peptide]” to “GLGYH [L-amino acid 5-mer array peptide]”, the “S/B (signal to background ratio)” value falls from 4.7 to 4.6.

Going from “MALHF [L-amino acid 5-mer array peptide]” to “MAMHF [L-amino acid 5-mer array peptide]”, the “S/B (signal to background ratio)” value rises from 8.0 to 17.9.

With “LATFH [L-amino acid 5-mer array peptide]” the “S/B (signal to background ratio)” value was 6.2.

Same assay, conditions: signal to background ratio; 5-mer L-peptide library array, Cy5-streptavidin

First: TPSFH [L-amino acid 5-mer array peptide]
Second: HPQKG
The S/B of the first is lower: 6.7 for the first, 18.2 for the second.

Going from HPMRG to PQPDW, the S/B falls from 9.3 to 5.2.

First: HPADF
Second: NWDEI [L-amino acid 5-mer array peptide]
The S/B of the first is lower: 6.3 for the first, 7.3 for the second.

Going from “LAKYH [L-amino acid 5-mer array peptide]” to AHPQK, the S/B falls from 12.2 to 12.1.

Going from HPQQW to HPMAF, the S/B rises from 16.8 to 18.0.

First: HPMSA
Second: HPQPN
The S/B of the first is higher: 8.0 for the first, 5.5 for the second.

Compared with PMPDD, “MALHF [L-amino acid 5-mer array peptide]” is lower in S/B: 8.2 for the first, 8.0 for the second.

First: MAMHF [L-amino acid 5-mer array peptide]
Second: HPMRW
The S/B of the first is higher: 17.9 for the first, 12.6 for the second.

Going from “LATFH [L-amino acid 5-mer array peptide]” to HPQMY, the S/B rises from 6.2 to 11.1.

Compared with HPMRS, KHPMN is lower in S/B: 7.0 for the first, 5.9 for the second.
